Assay results: the NIST ThermoML archive (doi:10.1021/acs.jced.8b00854)

Columns and labels:
[1] = xn = mol fraction of the nth substance listed; settings: 100 kPa, Liquid, Vibrating tube method
[2] = refractive index (Na D-line) (dimensionless); xn = mol fraction of the nth substance listed; settings: 100 kPa, Liquid, Standard Abbe refractometry

CCCCCCCCOS(=O)(=O)[O-].CCCCn1cc[n+](C)c1 [1-butyl-3-methylimidazolium octyl sulfate] + O
Settings | mass density, [1] [kg/m3] | refractive index, [2]
293.15 K, x1 = 0.1002 | 1048.11 | 1.4235
293.15 K, x1 = 0.2002 | 1060.01 | 1.4455
293.15 K, x1 = 0.3004 | 1063.92 | 1.4555
293.15 K, x1 = 0.4004 | 1065.86 | 1.461
293.15 K, x1 = 0.501 | 1066.97 | 1.464
293.15 K, x1 = 0.5998 | 1067.84 | 1.467
293.15 K, x1 = 0.6988 | 1068.5 | 1.4685
293.15 K, x1 = 0.8 | 1069.33 | 1.47
293.15 K, x1 = 0.9018 | 1070.47 | 1.4705
303.15 K, x1 = 0.1002 | 1041.72 | 1.422
303.15 K, x1 = 0.2002 | 1052.71 | 1.4435
303.15 K, x1 = 0.3004 | 1057.16 | 1.453
303.15 K, x1 = 0.4004 | 1059.15 | 1.4585
303.15 K, x1 = 0.501 | 1060.3 | 1.462
303.15 K, x1 = 0.5998 | 1061.29 | 1.4645
303.15 K, x1 = 0.6988 | 1061.97 | 1.466
303.15 K, x1 = 0.8 | 1062.8 | 1.4675
303.15 K, x1 = 0.9018 | 1063.98 | 1.4685
313.15 K, x1 = 0.1002 | 1035.13 | 1.4215
313.15 K, x1 = 0.2002 | 1046.53 | 1.4415
313.15 K, x1 = 0.3004 | 1050.37 | 1.4525
313.15 K, x1 = 0.4004 | 1052.42 | 1.457
313.15 K, x1 = 0.501 | 1053.61 | 1.4595
313.15 K, x1 = 0.5998 | 1054.71 | 1.462
313.15 K, x1 = 0.6988 | 1055.42 | 1.4635
313.15 K, x1 = 0.8 | 1056.28 | 1.465
313.15 K, x1 = 0.9018 | 1057.53 | 1.466
323.15 K, x1 = 0.1002 | 1028.37 | 1.421
323.15 K, x1 = 0.2002 | 1039.57 | 1.4405
323.15 K, x1 = 0.3004 | 1043.56 | 1.45
323.15 K, x1 = 0.4004 | 1045.67 | 1.4555
323.15 K, x1 = 0.501 | 1046.92 | 1.457
323.15 K, x1 = 0.5998 | 1048.14 | 1.46
323.15 K, x1 = 0.6988 | 1048.87 | 1.461
323.15 K, x1 = 0.8 | 1049.77 | 1.462
323.15 K, x1 = 0.9018 | 1051.07 | 1.4635
333.15 K, x1 = 0.1002 | 1021.44 | 1.419
333.15 K, x1 = 0.2002 | 1032.54 | 1.44
333.15 K, x1 = 0.3004 | 1036.7 | 1.4495
333.15 K, x1 = 0.4004 | 1038.91 | 1.4535
333.15 K, x1 = 0.501 | 1040.19 | 1.4545
333.15 K, x1 = 0.5998 | 1041.4 | 1.4575
333.15 K, x1 = 0.6988 | 1042.35 | 1.4585
333.15 K, x1 = 0.8 | 1043.27 | 1.46
333.15 K, x1 = 0.9018 | 1044.63 | 1.461
343.15 K, x1 = 0.1002 | 1014.33 | 1.419
343.15 K, x1 = 0.2002 | 1025.58 | 1.4395
343.15 K, x1 = 0.3004 | 1029.67 | 1.4465
343.15 K, x1 = 0.4004 | 1032.07 | 1.452
343.15 K, x1 = 0.501 | 1033.23 | 1.453
343.15 K, x1 = 0.5998 | 1034.54 | 1.4565
343.15 K, x1 = 0.6988 | 1035.66 | 1.457
343.15 K, x1 = 0.8 | 1036.82 | 1.458
343.15 K, x1 = 0.9018 | 1038.23 | 1.459

CCCCn1cc[n+](C)c1.F[B-](F)(F)F [1-butyl-3-methylimidazolium tetrafluoroborate] + O
Settings | mass density, [1] [kg/m3] | refractive index, [2]
293.15 K, x1 = 0.0994 | 1106.69 | 1.383
293.15 K, x1 = 0.2005 | 1143.19 | 1.397
293.15 K, x1 = 0.3003 | 1161.69 | 1.406
293.15 K, x1 = 0.4003 | 1173.6 | 1.411
293.15 K, x1 = 0.5006 | 1182.13 | 1.414
293.15 K, x1 = 0.6004 | 1188.42 | 1.4165
293.15 K, x1 = 0.7008 | 1193.17 | 1.418
293.15 K, x1 = 0.8006 | 1196.75 | 1.42
293.15 K, x1 = 0.899 | 1199.6 | 1.4215
303.15 K, x1 = 0.0994 | 1100.29 | 1.379
303.15 K, x1 = 0.2005 | 1135.92 | 1.395
303.15 K, x1 = 0.3003 | 1154.24 | 1.403
303.15 K, x1 = 0.4003 | 1166.15 | 1.409
303.15 K, x1 = 0.5006 | 1174.73 | 1.4125
303.15 K, x1 = 0.6004 | 1181.09 | 1.415
303.15 K, x1 = 0.7008 | 1185.92 | 1.4165
303.15 K, x1 = 0.8006 | 1189.58 | 1.418
303.15 K, x1 = 0.899 | 1192.49 | 1.4195
313.15 K, x1 = 0.0994 | 1093.06 | 1.3765
313.15 K, x1 = 0.2005 | 1128.35 | 1.394
313.15 K, x1 = 0.3003 | 1146.77 | 1.4015
313.15 K, x1 = 0.4003 | 1158.78 | 1.4075
313.15 K, x1 = 0.5006 | 1167.43 | 1.41
313.15 K, x1 = 0.6004 | 1173.85 | 1.4125
313.15 K, x1 = 0.7008 | 1178.71 | 1.414
313.15 K, x1 = 0.8006 | 1182.39 | 1.416
313.15 K, x1 = 0.899 | 1185.31 | 1.4175
323.15 K, x1 = 0.0994 | 1085.97 | 1.376
323.15 K, x1 = 0.2005 | 1120.89 | 1.393
323.15 K, x1 = 0.3003 | 1139.33 | 1.4015
323.15 K, x1 = 0.4003 | 1151.42 | 1.4055
323.15 K, x1 = 0.5006 | 1160.15 | 1.4075
323.15 K, x1 = 0.6004 | 1166.65 | 1.4105
323.15 K, x1 = 0.7008 | 1171.59 | 1.4125
323.15 K, x1 = 0.8006 | 1175.31 | 1.414
323.15 K, x1 = 0.899 | 1178.26 | 1.415
333.15 K, x1 = 0.0994 | 1079.15 | 1.3755
333.15 K, x1 = 0.2005 | 1113.47 | 1.39
333.15 K, x1 = 0.3003 | 1131.87 | 1.401
333.15 K, x1 = 0.4003 | 1144.01 | 1.405
333.15 K, x1 = 0.5006 | 1152.8 | 1.4075
333.15 K, x1 = 0.6004 | 1159.37 | 1.4095
333.15 K, x1 = 0.7008 | 1164.36 | 1.411
333.15 K, x1 = 0.8006 | 1168.12 | 1.4125
333.15 K, x1 = 0.899 | 1171.04 | 1.4135
343.15 K, x1 = 0.0994 | 1072.21 | 1.3755
343.15 K, x1 = 0.2005 | 1106.02 | 1.39
343.15 K, x1 = 0.3003 | 1124.41 | 1.401
343.15 K, x1 = 0.4003 | 1136.62 | 1.4045
343.15 K, x1 = 0.5006 | 1145.48 | 1.407
343.15 K, x1 = 0.6004 | 1152.11 | 1.407
343.15 K, x1 = 0.7008 | 1157.17 | 1.4085
343.15 K, x1 = 0.8006 | 1161 | 1.409
343.15 K, x1 = 0.899 | 1164.1 | 1.411
